Assay results published in patent US11203582B2, “Benzamide derivatives for inhibiting endoplasmic reticulum (ER) stress” (The Board of Regents of the University of Oklahoma, priority 2017, dated 2021).

Columns and labels:
[1] = tested on: βTC6 cells; assay: Cell survival assay, intracellular ATP, βTC6 cells treated with Tm; format: cell-based; settings: 72 h, FIG. 2C
Description: The measurement of intracellular ATP level was use as a surrogate assay for cell viability. […] To confirm the authenticity of 13d's protective effect on β-cell viability (not simply an increase in ATP-specific measurement), we used the MTT assay, which measures the activity of NAD(P)H-dependent cellular oxidoreductase enzymes, as an orthogonal method to measure cell viability. […] To determine whether the protective effect of 13d on β-cells is specific to INS-1 cells, another β-cell line, βTC6, was used. […] In addition, compound 13d on its own had no effect on β-cell viability in both cell lines (FIG. 2C-D). […]
INS-1 cells or βTC6 cells were seeded at 3×10^3 cells/well in a 384-well plate and treated with compounds at the indicated concentrations. […] Cell viability was measured with an EnVision multilabel plate reader (PerkinElmer, MA, USA).

[2] = tested on: MafA mRNA; assay: qRT-PCR of MafA mRNA in Tm-treated INS-1 cells; format: cell-based, rat; settings: Tm co-treatment, 24 h
Method: (A-D) INS-1 cells were treated with or without Tm (0.1 m/mL) in the presence of 13d at indicated concentrations or DMSO for 24 h. The mRNA levels of INS1 (A), INS2 (B), PDX1 (C), and MafA (D), were analyzed by qRT-PCR. Relative mRNA levels were normalized against the housekeeping gene Cyclophilin A using the comparative CT method. The results are the means of 3 replicate wells and are representative of 3 independent experiments. * P<0.05 and ** P<0.01 compared with Tm treatment alone. Bars indicate SD. (E) Insulin secretion by INS-1 cells incubated with 1.7 mM and 20 mM glucose in the presence or absence of Tm (0.1 μg/mL) and 13d. Secreted insulin was measured by ELISA after 24 h treatment. * P<0.05. The amount of insulin secreted in response to 1.7 mM glucose in the absence of Tm was set to 1.0 and was normalized with total protein concentration.
INS-1 cells were seeded at 4×10^5 cells/well in 6-well plates and treated with compounds for the indicated times. […] Relative mRNA levels were normalized against the housekeeping gene Cyclophilin A and were determined by ΔΔCt calculated from the difference in ΔCt values between the target gene and Cyclophilin A with and without treatment, based on comparative CT (cycle threshold) method. […]

[3] = tested on: Bip mRNA; assay: qRT-PCR of Bip mRNA in Tm-treated INS-1 cells; format: cell-based, rat; settings: Tm 0.1 μg/mL co-treatment, 8 h
Method: INS-1 cells were treated with or without Tm (0.1 μg/mL) in the presence of 13d or DMSO for 8 h. Bip (A) and GRP94 (B) mRNA levels were analyzed by qRT-PCR. Relative mRNA levels were normalized against the housekeeping gene Cyclophilin A using the comparative CT method. The results are the means of 3 replicate wells and representative of 3 independent experiments. ** P<0.01 compared with Tm treatment alone. Error bars indicate SD.
We then investigated the effects of 13d on the activation of ATF6 in β-cells under ER stress. Activated ATF6 acts as a homodimer or as an ATF6-XBP1s heterodimer to control the up-regulation of select UPR target genes including the chaperone proteins BiP and GRP94. Therefore, these two chaperone proteins were evaluated in the INS-1 cells in the presence of Tm.
INS-1 cells were seeded at 4×10^5 cells/well in 6-well plates and treated with compounds for the indicated times. Total RNA was extracted using TRIzol reagent (Invitrogen, Carlsbad, Calif.) according to the manufacturer's protocol, and 2 μg of total RNA was reverse transcribed using a Superscript kit (Invitrogen). […] Relative mRNA levels were normalized against the housekeeping gene Cyclophilin A and were determined by ΔΔCt calculated from the difference in ΔCt values between the target gene and Cyclophilin A with and without treatment, based on comparative CT (cycle threshold) method. […]

## O=C(NCc1ccc(C(F)(F)F)cc1)c1cccc(CN2CCCCC2)c1 [Compound 13d, N-(4-trifluoromethylphenmethyl)-3-(N-piperidinyl)methyl benzamide]
[1]; Tm 0.3 μg/mL
  viability of βTC6 cells under Tm treatment (intracellular ATP): rescued the viability of βTC6 cells in a dose-dependent manner
[1]; βTC6 cells, no Tm
  effect of compound on its own on β-cell viability: no effect
[2]
  Tm-decreased MafA mRNA expression level: completely rescued
[3]
  Tm-induced up-regulation of Bip mRNA: almost completely reversed
